Measurements taken from US4029547A (priority 1974, dated 1977).
“And” between values parts separate entries of the source, which are not always exact repeats. Equal values may be shown once. “Also recorded” adds a separate entry of the source. Read-outs that look alike come from different tables or passages of the source. Blank lines part the entries; values can stand above or below the compound they belong to.

Columns and labels:
[1] = target: T1, aminopeptidase B (Rattus norvegicus, UniProt O09175); assay: Inhibition of aminopeptidase B (arginine β-naphthylamide hydrolysis); assay type: biochemical; details: for 50% inhibition dose (ID50) of aminopeptidase B: amount added to the test solution
T1 construct: aminopeptidase B of rat liver; from tissue; host or cells: rat liver, enzyme prepared by Sephadex 100 chromatography
T1 sequence (O09175 1-650): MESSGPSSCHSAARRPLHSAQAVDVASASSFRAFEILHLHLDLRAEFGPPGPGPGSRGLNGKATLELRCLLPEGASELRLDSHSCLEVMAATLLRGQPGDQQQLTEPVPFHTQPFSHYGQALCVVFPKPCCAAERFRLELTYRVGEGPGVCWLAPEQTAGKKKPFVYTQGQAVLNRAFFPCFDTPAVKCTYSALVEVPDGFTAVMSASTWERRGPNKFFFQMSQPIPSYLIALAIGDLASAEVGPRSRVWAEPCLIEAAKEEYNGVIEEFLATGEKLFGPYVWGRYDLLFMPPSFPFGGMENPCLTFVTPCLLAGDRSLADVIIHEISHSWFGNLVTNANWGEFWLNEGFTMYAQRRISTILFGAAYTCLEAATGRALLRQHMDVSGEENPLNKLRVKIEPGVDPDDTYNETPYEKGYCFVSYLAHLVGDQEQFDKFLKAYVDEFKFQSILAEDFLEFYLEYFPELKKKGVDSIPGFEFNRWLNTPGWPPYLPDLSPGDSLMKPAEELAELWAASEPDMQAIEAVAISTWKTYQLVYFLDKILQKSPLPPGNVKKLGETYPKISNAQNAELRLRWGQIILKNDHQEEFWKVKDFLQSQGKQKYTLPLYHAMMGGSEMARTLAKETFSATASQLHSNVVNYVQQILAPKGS
Procedure: To the mixture of 0.3 ml of 1 mM arginine β-naphthylamide and 1.0 ml of 0.1 M Tris hydrochloride buffer (pH 7.0), 0.7 ml of distilled water with or without a test material is added and warmed at 37° C.) for 3 minutes. The reaction is started by addition of 0.2 ml of aminopeptidase B solution which is prepared by Sephadex 100 chromatography as described by Hopusu et al. After 30 minutes at 37° C., 0.6 ml of 1.0 M acetate buffer (pH 4.2) containing diazonium salt of o-aminoazotoluene at 1.0 mg/ml and Tween 20 at 10% is added. […] The inhibition percent is calculated as follows: (b-a)/b × 100.

[2] = target: T2, thermolysin (Bacillus thermoproteolyticus, UniProt P00800); assay: Inhibition of thermolysin; assay type: biochemical
T2 sequence (P00800 233-548): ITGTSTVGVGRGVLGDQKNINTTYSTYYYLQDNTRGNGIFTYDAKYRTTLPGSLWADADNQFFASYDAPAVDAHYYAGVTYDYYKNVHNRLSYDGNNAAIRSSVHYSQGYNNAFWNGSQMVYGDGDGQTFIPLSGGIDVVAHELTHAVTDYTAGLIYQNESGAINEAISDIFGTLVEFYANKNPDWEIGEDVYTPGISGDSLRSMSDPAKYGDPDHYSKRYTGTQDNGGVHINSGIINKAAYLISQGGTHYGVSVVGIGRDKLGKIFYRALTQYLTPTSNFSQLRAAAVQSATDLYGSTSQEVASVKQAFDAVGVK

[3] = Toxicity after intraperitoneal injection; assay type: in vivo, mouse
[4] = Stability to pH and heat; assay type: physicochemical; details: culture filtrate containing bestatin, pH 2.0 or pH 9.0, 60° C., 30 minutes
[5] = system: aminopeptidase A of human serum; assay: Inhibition of aminopeptidase A; assay type: biochemical
[6] = Solubility in solvents; assay type: physicochemical
[7] = system: Yoshida rat sarcoma cells; assay: Increase of bleomycin activity in tissue culture; assay type: cell-based; details: bestatin 6.25 μg/ml in tissue culture medium
[8] = system: trypsin; assay: Inhibition of trypsin; assay type: biochemical
[9] = system: mammalian cells including cancer cells; assay: Inhibition of growth of mammalian cells; assay type: cell-based
[10] = system: methylcholanthrene-induced squamous cell carcinoma; assay: Increase of bleomycin effect on carcinoma in vivo; parameters: species or system rat; details: simultaneous subcutaneous daily injection, 5 mg/kg bestatin with 5 mg/kg bleomycin, rats
[11] = system: bleomycin hydrolase; assay: Inhibition of bleomycin hydrolase; assay type: biochemical
[12] = target: T3, papain (Carica papaya, UniProt P00784); assay: Inhibition of papain; assay type: biochemical
T3 sequence (P00784 134-345): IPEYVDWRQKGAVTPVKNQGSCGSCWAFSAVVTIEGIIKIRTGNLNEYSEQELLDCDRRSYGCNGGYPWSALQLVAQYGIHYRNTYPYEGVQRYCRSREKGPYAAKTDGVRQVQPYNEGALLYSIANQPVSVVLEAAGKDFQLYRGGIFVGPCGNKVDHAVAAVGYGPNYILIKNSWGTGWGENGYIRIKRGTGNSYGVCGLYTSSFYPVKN

[13] = system: fungi; assay: Antifungal activity; assay type: cell-based; details: at 100 μg/ml
[14] = system: pepsin; assay: Inhibition of pepsin; assay type: biochemical
[15] = system: chymotrypsin; assay: Inhibition of chymotrypsin; assay type: biochemical
[16] = system: elastase; assay: Inhibition of elastase; assay type: biochemical
[17] = system: bacteria; assay: Antibacterial activity; assay type: cell-based
[18] = target: T4, leucine aminopeptidase (Sus scrofa, UniProt P28839); assay: Inhibition of leucine aminopeptidase (L-leucine naphthylamide hydrolysis); assay type: biochemical, swine; details: substrate L-leucine-β-naphthylamide
T4 construct: leucine aminopeptidase of swine kidney; from tissue; host or cells: swine kidney
T4 sequence (P28839 33-519 limits assumed): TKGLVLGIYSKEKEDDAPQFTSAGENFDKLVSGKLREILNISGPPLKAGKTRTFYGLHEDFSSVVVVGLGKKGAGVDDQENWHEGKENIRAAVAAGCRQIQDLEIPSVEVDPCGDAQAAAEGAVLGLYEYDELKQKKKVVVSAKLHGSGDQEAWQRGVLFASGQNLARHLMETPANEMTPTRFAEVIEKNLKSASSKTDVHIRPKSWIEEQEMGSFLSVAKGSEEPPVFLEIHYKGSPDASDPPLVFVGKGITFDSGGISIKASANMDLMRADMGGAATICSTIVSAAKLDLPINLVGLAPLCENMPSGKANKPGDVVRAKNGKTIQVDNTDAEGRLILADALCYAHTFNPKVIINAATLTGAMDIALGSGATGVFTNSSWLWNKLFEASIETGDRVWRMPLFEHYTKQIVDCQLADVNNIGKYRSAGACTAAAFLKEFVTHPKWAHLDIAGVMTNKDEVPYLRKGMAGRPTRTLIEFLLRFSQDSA
Procedure: The activity was determined by the following method: to 0.25 ml. of 2 mM L-leucine-3-naphthylamide (Tokyo Chem. Indust. Co., Ltd., Japan) was added 0.5 ml. of 0.1 M Tris-HCl buffer at pH 7.0 and 0.2 ml. of distilled water with or without an inhibitor in a series of test tubes in a 37° C. bath. After 3 minutes, 0.05 ml. of enzyme solution was added and mixed well.

50% inhibition dose (ID50) of aminopeptidase B [1]: 8.4 µg
Compound: COC(=O)[C@H](CC(C)C)NC(=O)[C@@H](O)[C@H](N)Cc1ccccc1 [methyl ester of bestatin]

50% inhibition dose (ID50) of aminopeptidase B [1]: 8 µg
Compound: COC(=O)[C@H](CC(C)C)NC(=O)[C@@H](O)[C@@H](Cc1ccccc1)NC(C)=O [N-acetyl-bestatin methyl ester]

Compound: CC(C)C[C@H](NC(=O)[C@@H](O)[C@H](N)Cc1ccccc1)C(=O)O [bestatin, [(2S,3R)-3-amino-2-hydroxy-4-phenylbutanoyl]-L-leucine]
inhibition of thermolysin [2]: did not show any inhibition | toxicity ([3]; intraperitoneal injection of 295 mg/kg, mouse): no toxicity | death ([3]; intraperitoneal injection of 300 mg/kg, mice): no death | stability (activity after treatment) [4]: No decrease of the activity | inhibition of aminopeptidase A [5]: did not show any inhibition | inhibition of aminopeptidase A ([5]; at 100 μg/ml, aminopeptidase A of human serum): 26.4% | solubility ([6]; ethyl acetate, butyl acetate, ethyl ether, hexane, petroleum ether, benzene, chloroform): practically insoluble; also recorded: hardly soluble | solubility ([6]; propanol and butanol): slightly soluble; also recorded: less soluble | solubility ([6]; water, acetic acid, pyridine, dimethylsulfoxide, methanol, ethanol): soluble | increase of bleomycin activity in inhibiting Yoshida rat sarcoma cells [7]: 4- 8 times | inhibition of trypsin [8]: did not show any inhibition | inhibition of growth of mammalian cells [9]: weak inhibition | increase of bleomycin effect on squamous cell carcinoma [10]: 4 times | inhibition of bleomycin hydrolase [11]: strong inhibition | inhibition of papain [12]: did not show any inhibition | antifungal activity [13]: no antifungal | inhibition of pepsin [14]: did not show any inhibition | IC50 ([1]; aminopeptidase B of rat liver): 178 nM | 50% inhibition dose (ID50) of aminopeptidase B [1]: 0.1 µg and 0.10 µg | mode of inhibition ([1]; substrate L-arginine-β-naphthylamide): competitive with the substrate | inhibition of chymotrypsin [15]: did not show any inhibition | inhibition of elastase [16]: did not show any inhibition | antibacterial activity ([17]; at 100 μg/ml): no antibacterial | antibacterial activity ([17]; no concentration given): substantially no antibacterial activity | mode of inhibition [18]: competitive with the substrate
